What all share (assay): Thermal stability shift assay
Holding throughout (assay type): binding

Assay [1] has as its target T1, BARK2 (Homo sapiens, UniProt P35626).
T1 sequence (P35626 1-688): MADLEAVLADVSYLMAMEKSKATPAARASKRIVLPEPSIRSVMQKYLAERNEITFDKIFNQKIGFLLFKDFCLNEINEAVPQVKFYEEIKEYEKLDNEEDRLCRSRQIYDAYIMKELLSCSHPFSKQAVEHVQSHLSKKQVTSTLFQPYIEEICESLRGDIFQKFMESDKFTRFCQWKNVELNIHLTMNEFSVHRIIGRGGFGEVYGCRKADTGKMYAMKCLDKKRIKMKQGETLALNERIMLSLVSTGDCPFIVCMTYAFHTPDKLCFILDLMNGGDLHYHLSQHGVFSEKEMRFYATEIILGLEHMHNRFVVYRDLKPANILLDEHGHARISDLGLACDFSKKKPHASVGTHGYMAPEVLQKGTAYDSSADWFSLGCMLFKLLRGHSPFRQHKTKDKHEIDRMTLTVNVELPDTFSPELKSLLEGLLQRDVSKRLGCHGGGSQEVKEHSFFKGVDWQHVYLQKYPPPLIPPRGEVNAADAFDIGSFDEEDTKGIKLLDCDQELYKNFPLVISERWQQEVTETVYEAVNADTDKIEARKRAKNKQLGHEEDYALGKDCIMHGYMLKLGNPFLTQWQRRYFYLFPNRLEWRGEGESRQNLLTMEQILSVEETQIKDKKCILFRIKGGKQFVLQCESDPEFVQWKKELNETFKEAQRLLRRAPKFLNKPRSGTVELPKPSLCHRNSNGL
The following applies: read-out: Tm shift BARK2. The procedure, abridged:
(§1)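 Thermal denaturation is measured by SyproOrange fluorescence in a real-time PCR machine. Each sample holds 2 μM protein and 10 μM compound in 10 mM HEPES pH 7.5 with 500 mM NaCl.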

For assay [2], the target named is CaMKK1 (Homo sapiens, UniProt Q8N5S9). The following applies: read-out: Tm shift CaMKK1. In short, it runs like this: as §1
CaMKK1, sequence (Q8N5S9 whole entry): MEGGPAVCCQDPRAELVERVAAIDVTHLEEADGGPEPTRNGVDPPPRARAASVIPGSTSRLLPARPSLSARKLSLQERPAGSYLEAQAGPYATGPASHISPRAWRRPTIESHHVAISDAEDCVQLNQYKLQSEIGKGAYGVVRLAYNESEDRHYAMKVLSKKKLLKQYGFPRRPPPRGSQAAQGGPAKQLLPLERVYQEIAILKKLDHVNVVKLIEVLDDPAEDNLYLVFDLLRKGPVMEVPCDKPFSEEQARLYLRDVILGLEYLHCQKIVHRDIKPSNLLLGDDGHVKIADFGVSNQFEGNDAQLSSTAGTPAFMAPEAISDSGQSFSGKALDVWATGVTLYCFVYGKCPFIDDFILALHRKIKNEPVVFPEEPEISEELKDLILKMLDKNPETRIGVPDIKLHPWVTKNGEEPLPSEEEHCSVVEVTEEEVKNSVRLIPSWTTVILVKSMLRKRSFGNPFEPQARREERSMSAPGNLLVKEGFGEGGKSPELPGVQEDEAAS
Assay [3] addresses T2, Haspin (Homo sapiens, UniProt Q8TF76).
T2 construct: purchased in-house (SGC Oxford thermal shift panel)
T2 sequence (Q8TF76 1-798): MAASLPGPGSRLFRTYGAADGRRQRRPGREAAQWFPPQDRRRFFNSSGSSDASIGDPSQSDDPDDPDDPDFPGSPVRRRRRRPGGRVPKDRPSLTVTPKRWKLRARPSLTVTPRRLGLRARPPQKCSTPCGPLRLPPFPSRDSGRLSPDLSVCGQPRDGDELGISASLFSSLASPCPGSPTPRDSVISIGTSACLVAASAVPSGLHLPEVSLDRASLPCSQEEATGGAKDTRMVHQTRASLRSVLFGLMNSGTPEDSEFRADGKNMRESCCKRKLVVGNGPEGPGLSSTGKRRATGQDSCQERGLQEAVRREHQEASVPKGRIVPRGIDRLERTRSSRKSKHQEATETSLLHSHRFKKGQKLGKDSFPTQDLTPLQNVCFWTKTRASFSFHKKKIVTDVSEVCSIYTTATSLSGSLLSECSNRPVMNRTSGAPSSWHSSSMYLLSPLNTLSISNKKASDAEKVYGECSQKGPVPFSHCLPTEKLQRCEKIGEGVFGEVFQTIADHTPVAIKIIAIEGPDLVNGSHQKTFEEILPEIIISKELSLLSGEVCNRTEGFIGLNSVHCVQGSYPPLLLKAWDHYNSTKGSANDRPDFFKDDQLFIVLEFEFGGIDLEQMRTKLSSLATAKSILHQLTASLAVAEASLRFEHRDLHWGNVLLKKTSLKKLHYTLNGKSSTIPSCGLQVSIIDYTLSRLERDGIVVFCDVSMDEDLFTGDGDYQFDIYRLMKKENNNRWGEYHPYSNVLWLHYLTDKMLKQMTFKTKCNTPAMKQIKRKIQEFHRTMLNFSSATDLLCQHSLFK
The following applies: read-out: Tm shift Haspin. The procedure, abridged: as §1

Assay [4] has as its target PKACa (Homo sapiens, UniProt P17612). The following applies: read-out: Tm shift PKACa. In short, it runs like this:
as §1

Assay [5] addresses T3, PKD3 (Homo sapiens, UniProt O94806).
T3 sequence (O94806 1-890): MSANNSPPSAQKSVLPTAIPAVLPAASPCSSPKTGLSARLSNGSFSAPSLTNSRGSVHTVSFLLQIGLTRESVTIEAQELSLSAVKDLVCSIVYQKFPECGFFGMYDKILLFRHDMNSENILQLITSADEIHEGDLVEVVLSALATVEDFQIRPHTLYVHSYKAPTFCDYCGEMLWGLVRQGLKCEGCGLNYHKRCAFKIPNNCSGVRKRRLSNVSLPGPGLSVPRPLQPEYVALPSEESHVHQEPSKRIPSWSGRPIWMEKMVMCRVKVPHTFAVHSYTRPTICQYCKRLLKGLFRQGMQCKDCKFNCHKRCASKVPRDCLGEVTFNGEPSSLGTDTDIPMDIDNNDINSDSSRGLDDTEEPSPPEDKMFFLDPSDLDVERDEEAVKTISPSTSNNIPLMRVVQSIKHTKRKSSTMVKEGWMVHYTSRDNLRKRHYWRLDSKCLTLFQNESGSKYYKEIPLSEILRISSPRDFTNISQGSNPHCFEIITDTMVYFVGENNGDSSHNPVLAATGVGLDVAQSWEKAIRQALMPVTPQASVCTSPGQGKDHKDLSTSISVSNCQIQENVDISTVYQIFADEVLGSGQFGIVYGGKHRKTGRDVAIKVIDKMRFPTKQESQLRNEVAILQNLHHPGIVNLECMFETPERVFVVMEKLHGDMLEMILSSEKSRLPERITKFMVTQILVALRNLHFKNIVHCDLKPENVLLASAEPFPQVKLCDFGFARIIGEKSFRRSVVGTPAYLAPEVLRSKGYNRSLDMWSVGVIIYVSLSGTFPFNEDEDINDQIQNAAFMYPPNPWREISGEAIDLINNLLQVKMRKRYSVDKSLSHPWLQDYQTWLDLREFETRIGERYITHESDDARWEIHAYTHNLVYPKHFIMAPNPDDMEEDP
The following applies: read-out: Tm shift PKD3. The procedure, abridged:
as §1

The target of assay [6] is T4, RSK1-C (Homo sapiens, UniProt Q15418).
T4 construct: RSK1-C 0.7 4.0 1.6 1.9 1.9 0.3 0.9
T4 sequence (Q15418 418-675 limits assumed): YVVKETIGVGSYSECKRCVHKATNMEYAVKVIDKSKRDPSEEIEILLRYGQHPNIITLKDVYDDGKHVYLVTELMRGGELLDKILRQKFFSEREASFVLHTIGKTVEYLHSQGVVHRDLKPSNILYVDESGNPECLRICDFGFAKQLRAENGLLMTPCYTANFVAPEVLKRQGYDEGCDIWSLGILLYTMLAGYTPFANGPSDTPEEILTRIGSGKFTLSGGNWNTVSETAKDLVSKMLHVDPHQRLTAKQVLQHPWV
The following applies: read-out: Tm shift RSK1-C. The procedure, abridged: as §1

Assay [7] concerns the target ZAK (Homo sapiens, UniProt Q9NYL2). The following applies: read-out: Tm shift ZAK. The procedure, abridged:
as §1

Like-named read-outs stand apart in the source and are kept apart here.

The source of these data is article PMC3145970, “Specific CLK Inhibitors from a Novel Chemotype for Regulation of Alternative Splicing” (Chemistry & Biology, 2011).

ZAK, sequence (Q9NYL2 whole entry): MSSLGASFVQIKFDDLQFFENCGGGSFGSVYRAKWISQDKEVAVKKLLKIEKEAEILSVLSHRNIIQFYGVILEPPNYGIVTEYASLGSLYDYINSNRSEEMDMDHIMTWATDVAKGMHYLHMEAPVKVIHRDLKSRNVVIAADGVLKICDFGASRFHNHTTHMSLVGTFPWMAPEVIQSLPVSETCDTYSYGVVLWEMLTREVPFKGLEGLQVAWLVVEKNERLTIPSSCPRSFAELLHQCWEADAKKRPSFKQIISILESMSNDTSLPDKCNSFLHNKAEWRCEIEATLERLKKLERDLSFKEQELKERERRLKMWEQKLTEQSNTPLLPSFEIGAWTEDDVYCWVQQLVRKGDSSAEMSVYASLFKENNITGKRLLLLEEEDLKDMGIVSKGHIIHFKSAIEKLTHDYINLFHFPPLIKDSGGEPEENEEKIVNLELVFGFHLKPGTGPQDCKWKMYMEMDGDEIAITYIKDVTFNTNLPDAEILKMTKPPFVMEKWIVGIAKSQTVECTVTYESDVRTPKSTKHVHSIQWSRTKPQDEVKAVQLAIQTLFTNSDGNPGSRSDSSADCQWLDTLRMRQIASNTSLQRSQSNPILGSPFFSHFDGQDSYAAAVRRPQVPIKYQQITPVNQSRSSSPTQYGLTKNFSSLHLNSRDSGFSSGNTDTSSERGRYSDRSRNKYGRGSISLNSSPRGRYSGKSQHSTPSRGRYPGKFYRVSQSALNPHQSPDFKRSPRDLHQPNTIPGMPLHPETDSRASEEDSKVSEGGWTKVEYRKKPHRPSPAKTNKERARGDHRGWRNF

In the case of `CCOC(=O)c1c(/C(C#N)=C\N)c2ccc(Cl)c(Cl)c2n1C` [KH-CB19, (E)-Ethyl 3-(2-Amino-1-Cyanovinyl)-6,7-Dichloro-1-Methyl-1H-Indole-2-Carboxylate], the ΔTm at 10 µM in assay [1] was -0.4 °C; in assay [2], -0.1 °C; in assay [3], 2.1 °C; in assay [4] it was 0 °C; in assay [5], 0.1 °C; in assay [6], 1.6 °C. Besides, the ΔTm at 10 µM in assay [7] was -0.3 °C.
For the molecule `NC1=NC(=O)/C(=C2\CCNC(=O)c3[nH]c(Br)cc32)N1` [Hymenialdisine, hymenialdisine, reference compound], the ΔTm at 10 µM in assay [1] (inhibitor 10 μM) is -0.3 °C; in assay [2] (inhibitor 10 μM), 0.2 °C; in assay [3] (inhibitor 10 μM), 3.9 °C; in assay [4] (inhibitor 10 μM) it was 0.8 °C; in assay [5] (inhibitor 10 μM), 2 °C; in assay [6] (inhibitor 10 μM), 0.7 °C. Further, the ΔTm at 10 µM in assay [7] (inhibitor 10 μM) is 1.7 °C.
For the molecule `CCOC(=O)c1c(C(C#N)=CN)c2ccc(Cl)c(Cl)c2n1C` (mixture of isomers) [KH-CB20, (E/Z)-Ethyl 3-(2-Amino-1-Cyanovinyl)-6,7-Dichloro-1-Methyl-1H-Indole-2-Carboxylate], the ΔTm at 10 µM in assay [1] is -0.1 °C; in assay [2], 0.6 °C; in assay [3], 1.8 °C; in assay [4], 0.3 °C; in assay [5], 0.3 °C; in assay [6] it was 1.9 °C. Besides, the ΔTm at 10 µM in assay [7] was -0.1 °C.
Regarding `Cn1c2c(Cl)c(Cl)ccc2c2c(C#N)c[nH]c(=O)c21` [compound 3, 7,8-Dichloro-9-Methyl-1-Oxo-2,9-Dihydro-1H-Pyrido[3,4-b]Indole-4-Carbonitrile], the ΔTm at 10 µM turned out to be 0.3 °C in assay [1] (inhibitor 10 μM); 0.4 °C in assay [2] (inhibitor 10 μM); 2.1 °C in assay [3] (inhibitor 10 μM); 0.4 °C in assay [4] (inhibitor 10 μM); 0.4 °C in assay [5] (inhibitor 10 μM); 1.9 °C in assay [6] (inhibitor 10 μM). In assay [7] (inhibitor 10 μM), the ΔTm at 10 µM was -0.2 °C.
Take `CCOC(=O)c1c(C(C#N)=CN(C)C)c2ccc(Cl)c(Cl)c2n1C` (mixture of isomers) [compound 2, (E/Z)-Ethyl 6,7-Dichloro-3-[1-Cyano-2-(Dimethylamino)Vinyl]-1-Methyl-1H-Indole-2-Carboxylate]: the ΔTm at 10 µM in assay [1] (inhibitor 10 μM) is 0.2 °C; in assay [2] (inhibitor 10 μM), 0.3 °C; in assay [3] (inhibitor 10 μM), 0.2 °C; in assay [4] (inhibitor 10 μM), 0.2 °C; in assay [5] (inhibitor 10 μM) it was 0 °C; in assay [6] (inhibitor 10 μM), 0.3 °C. Moreover, the ΔTm at 10 µM in assay [7] (inhibitor 10 μM) was -0.4 °C.
